In patent US20240287138A1, “CYCLIC PEPTIDES FOR INHIBITING TNF RECEPTOR 1 ACTIVITY” (Merck Sharp & Dohme LLC, priority 2023, published 2024):
Like-named read-outs stand apart in the source and are kept apart here. Numbered stars: 1 amine (or outer) side, 2 acyl side, 3 side chain; on linkers, the order of the positions; unused ones are H or OH. Bridge positions count the residues as written; N and C are the ends. Square brackets hold non-standard residues; d marks the D form. Peptide text beside a SMILES is read from it. * marks the point of attachment. Trp(βS-Me,7-OMe) = COc1cccc2c([C@H](C)[C@H](N)C(=O)O)c[nH]c12; Ala(1-bicyclo(1.1.1)pentyl) = N[C@@H](CC12CC(C1)C2)C(=O)O; Trp(7-Cl) = N[C@@H](Cc1c[nH]c2c(Cl)cccc12)C(=O)O; Phe(4-CONH2) = NC(=O)c1ccc(C[C@H](N)C(=O)O)cc1; Phe(4-COOH) = N[C@@H](Cc1ccc(C(=O)O)cc1)C(=O)O; Trp(7-aza) = N[C@@H](Cc1c[nH]c2ncccc12)C(=O)O; Pip(5R-OH) = O=C(O)[C@@H]1CC[C@@H](O)CN1; X1 = O=C([C@@H]1CC[C@H](N[*:1])C1)[*:2]; Pip(4-aza) = O=C(O)[C@@H]1CNCCN1; hArg = N=C(N)NCCCC[C@H](N)C(=O)O; 4Pal = N[C@@H](Cc1ccncc1)C(=O)O; NMeE = CN[C@@H](CCC(=O)O)C(=O)O; dHyp = O=C(O)[C@H]1C[C@H](O)CN1; αMeS = C[C@](N)(CO)C(=O)O; Carboxymethyl = O=C(O)C*; Nle = CCCC[C@H](N)C(=O)O; Sar = CNCC(=O)O

How the values were obtained:
human TNFR2 ECD protein = target: T1, human TNFR2 ECD protein (Homo sapiens, UniProt P20333); assay: SPR off-target binding (selectivity) to human TNFR2 ECD
T1 construct: HRV 3C protease cleavage site (C); 6His (C, cleaved yes); made in house; host or cells: Sf21 insect cells (baculovirus), secreted
T1 sequence (P20333 23-257): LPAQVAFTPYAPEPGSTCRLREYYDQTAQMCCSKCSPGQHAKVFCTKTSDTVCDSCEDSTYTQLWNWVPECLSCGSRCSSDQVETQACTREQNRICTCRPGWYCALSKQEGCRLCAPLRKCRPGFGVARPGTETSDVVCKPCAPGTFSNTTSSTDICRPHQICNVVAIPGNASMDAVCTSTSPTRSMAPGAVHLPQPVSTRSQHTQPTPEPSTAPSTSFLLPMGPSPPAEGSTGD
Method: (§1) B. Procedure for Binding Affinity and Selectivity measured by SPR
(§2) Affinity and selectivity for hTNFR1 and TNFR2 was determined using SPR. Human TNFR1 or TNFR2 genes (extracellular domain only) were synthesized with a C-terminal Avi-tag, HRV 3C protease cleavage site followed by a 6His-tag for affinity purification. The final gene product was cloned into pBAC™-1 vector (Millipore Sigma) for expression testing in insect cells. Constructs were transfected into Sf21 cells for baculovirus generation followed by protein expression analysis in Sf21 and Tni cell lines. Large scale expression in Sf21 cells was performed using baculovirus infected insect cells (BIICs) infected at a MOI=2.0 grown for 72 h. Target proteins secreted into the media were harvested via centrifugation and concentrated using diafiltration. TNFR was purified by immobilized metal ion affinity chromatography (IMAC) using a Ni-Sepharose HisTrap™ column (Cytiva™). Isolated TNFR had His tag removed using HRV 3C protease followed by additional purification using Ni-NTA chromatography. Biotinylation was performed on Ni-NTA flow-through fractions concentrated to 45 μM and treated with BirA ligase (1:100, μg/μg ratio) in 50 mM Tris pH 7.5, 150 mM NaCl, 50 μM biotin, 10 mM magnesium acetate, 10 mM ATP at 4° C. for 20 h. Final purification of biotin-TNFR and buffer exchange into 20 mM HEPES pH 7.5, 150 mM NaCl was performed using a HiLoad® Superdex® 200 26/60 column (Cytiva™). Highly purified protein was aliquoted and stored at −80° C.
(§3) The SPR assay uses a Cytiva™ 8K or 8K+ biosensor instrument to measure the kinetics of peptide analytes binding to captured human TNFR1 extracellular domain (ECD) protein; peptide analytes are also evaluated for any off-target binding to human TNFR2 ECD protein in parallel. Recombinant human TNFR1 ECD and human TNFR2 ECD proteins, biotinylated via engineered C-terminal avi-tags, are immobilized to a regenerable streptavidin biosensor chip surface (Cytiva™ Biotin CAPture kit, Series S; cat. #28920234). Peptide analytes binding to immobilized human TNFR1 ECD protein and their subsequent dissociation are conducted in a buffer of 10 mM HEPES pH 7.4, 150 mM NaCl, 3 mM EDTA, 0.05% P20,2% DMSO under laminar flow conditions and measured in response units (RU), which are directly proportional to the accumulated mass on the surface of the biosensor chip; the biosensor chip surface is regenerated via Cytiva™ proprietary methods between the evaluation of each peptide analyte. […] The SPR assay determines the association and dissociation rate constants, kon and koff, for each peptide analyte and, from these values, calculates the binding affinity, […] reported in Table 2.

[1] = target: T2, human TNFR1 extracellular domain (ECD) protein (Homo sapiens, UniProt P19438); assay: SPR binding affinity to captured human TNFR1 ECD
T2 construct: HRV 3C protease cleavage site (C); 6His (C, cleaved yes); made in house; host or cells: Sf21 insect cells (baculovirus), secreted
T2 sequence (P19438 30-211): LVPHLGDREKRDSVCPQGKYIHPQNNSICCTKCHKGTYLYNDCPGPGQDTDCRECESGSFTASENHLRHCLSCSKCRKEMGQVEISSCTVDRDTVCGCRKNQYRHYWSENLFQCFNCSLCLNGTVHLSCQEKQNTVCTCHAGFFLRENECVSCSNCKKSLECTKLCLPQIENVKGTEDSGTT
Method: as §1, §2, §3

[2] = target: T3, TNFα-induced NF-κB signal transduction pathway (TNFR1 signaling) in THP-1 cells (Homo sapiens, UniProt P19438); assay: THP-1 Lucia NF-κB reporter cell assay, inhibition of TNFα-induced NF-κB signaling; type: cell-based; details: THP-1 NF-κB Lucia reporter cells, 10 ng/mL TNFα, 16-18 h, secreted luciferase; read-out: THP-1 IC50
T3 sequence (P19438 30-455): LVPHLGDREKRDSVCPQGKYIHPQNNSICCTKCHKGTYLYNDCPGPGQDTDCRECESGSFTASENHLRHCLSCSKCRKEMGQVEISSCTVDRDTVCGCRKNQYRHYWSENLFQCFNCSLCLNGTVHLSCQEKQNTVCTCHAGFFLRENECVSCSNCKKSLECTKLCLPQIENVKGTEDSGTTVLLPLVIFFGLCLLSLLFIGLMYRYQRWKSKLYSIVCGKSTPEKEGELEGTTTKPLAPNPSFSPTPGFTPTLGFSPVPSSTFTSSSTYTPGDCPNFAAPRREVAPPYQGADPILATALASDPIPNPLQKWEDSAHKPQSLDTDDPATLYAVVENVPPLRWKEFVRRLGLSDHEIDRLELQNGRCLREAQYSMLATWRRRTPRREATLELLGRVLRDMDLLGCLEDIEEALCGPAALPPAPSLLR
Outline: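 THP-1 Lucia NF-κB cells, 20k/well, no selection antibiotics; peptide pre-inc 1 h 37 °C; + recombinant human TNFα 10 ng/mL final; o.n.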

SMILES | Kd (human TNFR2 ECD protein) [nM] | Kd [1] [nM] | IC50 [2] [nM] | Kd (human TNFR2 ECD protein; biotinylated human TNFR2 ECD on streptavidin chip, read-out: SPR hTNFR2 KD) [nM] | Kd ([1]; biotinylated human TNFR1 ECD on streptavidin chip, from kon and koff, read-out: SPR hTNFR1 KD) [nM]
CCCC[C@@H]1NC(=O)[C@@H]2CC[C@@H](C2)NC(=O)[C@H]([C@@H](C)c2c[nH]c3c(OC)cccc23)NC(=O)CN(C)C(=O)[C@H](Cc2ccc(OCC(=O)O)cc2)NC(=O)[C@H](Cc2ccc(C(N)=O)cc2)NC(=O)[C@](C)(CO)NC(=O)[C@H](Cc2c[nH]c3c(Cl)cccc23)NC(=O)[C@H](Cc2ccc(OCC(=O)O)cc2)NC(=O)[C@H](CC(N)=O)NC(=O)[C@H]2C[C@H](O)CN2C(=O)[C@H](Cc2c[nH]c3ccccc23)NC(=O)[C@@H]2CC[C@@H](O)CN2C(=O)[C@H](Cc2ccncc2)NC1=O [SEQ ID NO. 3] (cyclo([4Pal][Pip(5R-OH)]W[dHyp]NY(Carboxymethyl)[Trp(7-Cl)][αMeS][Phe(4-CONH2)]Y(Carboxymethyl)[Sar][Trp(βS-Me,7-OMe)][X1][Nle])) | > 1000 | 0.04 | 0.5 |  | 
CCCC[C@@H]1NC(=O)[C@@H]2CC[C@@H](C2)NC(=O)[C@H]([C@@H](C)c2c[nH]c3c(OC)cccc23)NC(=O)CN(C)C(=O)[C@H](Cc2ccc(O)cc2)NC(=O)[C@H](Cc2ccc(C(=O)O)cc2)NC(=O)[C@](C)(CO)NC(=O)[C@H](Cc2c[nH]c3c(Cl)cccc23)NC(=O)[C@H](Cc2ccncc2)NC(=O)[C@H](CC(N)=O)NC(=O)[C@H](CCC(=O)O)N(C)C(=O)[C@H](Cc2c[nH]c3ccccc23)NC(=O)[C@@H]2CNCCN2C(=O)[C@H](Cc2ccncc2)NC1=O [SEQ ID NO. 5] (cyclo([4Pal][Trp(7-Cl)][αMeS][Phe(4-COOH)]Y[Sar][Trp(βS-Me,7-OMe)][X1][Nle][4Pal][Pip(4-aza)]W[NMeE]N)) |  |  | 1.2 | > 1000 | 0.1
CCCC[C@@H]1NC(=O)CSC[C@@H](C(N)=O)NC(=O)[C@H]([C@@H](C)c2c[nH]c3c(OC)cccc23)NC(=O)CN(C)C(=O)[C@H](Cc2ccc(O)cc2)NC(=O)[C@H](Cc2ccc(C(=O)O)cc2)NC(=O)[C@](C)(CO)NC(=O)[C@H](Cc2c[nH]c3c(Cl)cccc23)NC(=O)[C@H](Cc2ccncc2)NC(=O)[C@H](CC(N)=O)NC(=O)[C@H](CCC(=O)O)N(C)C(=O)[C@H](Cc2c[nH]c3ncccc23)NC(=O)[C@@H]2CNCCN2C(=O)[C@H](CC23CC(C2)C3)NC1=O [SEQ ID NO. 33] ({CH2CO}-[Nle][Ala(1-bicyclo(1.1.1)pentyl)][Pip(4-aza)][Trp(7-aza)][NMeE]N[4Pal][Trp(7-Cl)][αMeS][Phe(4-COOH)]Y[Sar][Trp(βS-Me,7-OMe)]C-NH2; thioether N-14) | > 1000 | 0.3 | 6.8 |  | 
COc1cccc2c([C@H](C)[C@@H]3NC(=O)CN(C)C(=O)[C@H](Cc4ccc(O)cc4)NC(=O)[C@H](Cc4ccc(C(=O)O)cc4)NC(=O)[C@](C)(CO)NC(=O)[C@H](Cc4c[nH]c5c(Cl)cccc45)NC(=O)[C@H](Cc4ccncc4)NC(=O)[C@H](CC(N)=O)NC(=O)[C@H](CCC(=O)O)N(C)C(=O)[C@H](Cc4c[nH]c5ccccc45)NC(=O)[C@@H]4CNCCN4C(=O)[C@H](Cc4ccncc4)NC(=O)[C@H](CCCCNC(=N)N)NC(=O)[C@@H]4CC[C@@H](C4)NC3=O)c[nH]c12 [SEQ ID NO. 35] (cyclo([4Pal][Trp(7-Cl)][αMeS][Phe(4-COOH)]Y[Sar][Trp(βS-Me,7-OMe)][X1][hArg][4Pal][Pip(4-aza)]W[NMeE]N)) | > 1000 | 0.11 | 1 |  | 
